Assay results from PubChem BioAssay (NCI).
“And” between values parts separate entries of the source, which are not always exact repeats. Equal values may be shown once.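 Each compound was tested at five concentrations against cells in 96-well plates for 48 hours. GI50 is the concentration that inhibits growth by half. TGI: total growth inhibition.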

Columns and labels:
Assay in all cases: inhibition of tumour cell growth, NCI panel, 48 h
OVCAR-8 ovarian = system: OVCAR-8 ovarian
SNB-19 CNS = system: SNB-19 CNS
SF-268 CNS = system: SF-268 CNS
NCI-H460 lung = system: NCI-H460 lung
SK-OV-3 ovarian = system: SK-OV-3 ovarian
A498 renal = system: A498 renal
DU-145 prostate = system: DU-145 prostate
RPMI-8226 leukemia = system: RPMI-8226 leukemia
SK-MEL-2 melanoma = system: SK-MEL-2 melanoma
OVCAR-5 ovarian = system: OVCAR-5 ovarian

SMILES	GI50 (OVCAR-8 ovarian)	TGI (OVCAR-8 ovarian)	GI50 (SNB-19 CNS)	TGI (SNB-19 CNS)	GI50 (SF-268 CNS)	TGI (SF-268 CNS)	GI50 (NCI-H460 lung)	TGI (NCI-H460 lung)	GI50 (SK-OV-3 ovarian)	TGI (SK-OV-3 ovarian)	GI50 (A498 renal)	TGI (A498 renal)	GI50 (DU-145 prostate)	TGI (DU-145 prostate)	GI50 (RPMI-8226 leukemia)	TGI (RPMI-8226 leukemia)	GI50 (SK-MEL-2 melanoma)	TGI (SK-MEL-2 melanoma)	GI50 (OVCAR-5 ovarian)	TGI (OVCAR-5 ovarian)
N=c1c2c(-c3ccccc3)c(-c3ccccc3)n(Cc3ccccc3)c2ncn1C1CCC(O)CC1 (configuration not stated)	0.072 µM	19 µM	1.21 µM	17.9 µM	0.118 µM	15 µM	0.0542 µM	1.5 µM	2.32 µM	15.7 µM	0.345 µM	14.4 µM	0.351 µM	15.3 µM	0.318 µM	4.12 µM	1.08 µM	4.38 µM	5.84 µM	22.4 µM
O=C(Nc1cc(C(F)(F)F)cc(C(F)(F)F)c1)c1cc(Cl)ccc1O	0.278 µM and 0.285 µM	3.85 µM and 6.08 µM	0.291 µM and 0.233 µM	> 10 µM and 12 µM	0.21 µM	2.1 µM and 2.82 µM	0.271 µM and 0.29 µM	1.42 µM and 1.94 µM	0.185 µM and 0.181 µM	0.642 µM and 0.947 µM	0.045 µM and < 0.0141 µM	0.241 µM and 0.178 µM	0.345 µM and 0.347 µM	> 5.23 µM and 10.8 µM	0.116 µM and 0.155 µM	0.578 µM and 0.713 µM	0.209 µM and 0.206 µM	0.589 µM and 0.981 µM	0.305 µM and 0.357 µM	> 5.03 µM and 15.9 µM
O=c1c(F)cn(Cc2ccc(C34CC5CC(CC(C5)C3)C4)c(O)c2)c(=O)n1Cc1ccc(C23CC4CC(CC(C4)C2)C3)c(O)c1	14.5 µM	45.5 µM	27.5 µM	57.1 µM	12.8 µM	32.6 µM	9.76 µM	37.2 µM	17.9 µM	33.1 µM	14.2 µM	27.5 µM	8.59 µM	22.9 µM	15.4 µM	60.4 µM	18.8 µM	41.8 µM	13.5 µM	28.1 µM
COc1cc(C(=O)N2CCN(C(=O)c3cc(OC)c(OC)c(OC)c3)C2=S)cc(OC)c1OC	21.9 µM	45.9 µM	18.5 µM	38.1 µM	11.5 µM	26.1 µM	27.2 µM	73.6 µM	20.2 µM	52.7 µM	17.7 µM	33 µM	13.6 µM	27.7 µM	–	26.1 µM	16.3 µM	34.6 µM	23.2 µM	57.7 µM
COc1cc(N(CCC#N)CCC#N)ccc1/C(N=Nc1ccc(Cl)cc1)=N/NC(=O)c1cc(Br)ccc1O	39 µg/mL	108 µg/mL	> 150 µg/mL	> 150 µg/mL	35 µg/mL	> 150 µg/mL	53.6 µg/mL	> 150 µg/mL	90.8 µg/mL	> 150 µg/mL	> 150 µg/mL	> 150 µg/mL	143 µg/mL	> 150 µg/mL	102 µg/mL	> 150 µg/mL	146 µg/mL	> 150 µg/mL	> 150 µg/mL	> 150 µg/mL
COc1ccc2nc3ccccc3c(NCc3ccc(F)cc3)c2c1	2 µM	13.6 µM	2.04 µM	7.62 µM	2.2 µM	8.71 µM	1.78 µM	6.18 µM	2.79 µM	10.4 µM	1.62 µM	5.74 µM	2.09 µM	7.04 µM	1.24 µM	3.06 µM	3.19 µM	10.4 µM	2.25 µM	8.21 µM
Clc1cc2c(c(CSc3nc4ccccc4n4cccc34)c1)OCOC2	20.6 µM	> 100 µM	41 µM	> 100 µM	31.3 µM	> 100 µM	> 100 µM	> 100 µM	13.7 µM	45 µM	22.6 µM	> 100 µM	> 100 µM	> 100 µM	> 100 µM	> 100 µM	13.6 µM	44.9 µM	> 100 µM	> 100 µM
C[C@@H]1C[C@@H]([C@@H](CC2CC(=O)NC(=O)C2)OC(=O)CC(=O)c2ccccc2)C(=O)[C@@H](C)C1	0.405 µM	> 68.8 µM	0.774 µM	> 100 µM	0.908 µM	> 32 µM	0.461 µM	> 43.9 µM	0.411 µM	> 43.7 µM	0.177 µM	2.36 µM	0.769 µM	> 33.3 µM	4.03 µM	> 100 µM	0.88 µM	22.8 µM	0.662 µM	> 100 µM
COC(=O)[C@]12CC[C@@H](C)[C@H](C)[C@@H]1C1=CC[C@@H]3[C@@]4(C)C[C@@H](O)[C@H](O)[C@@](C)(CO)C4=CC[C@@]3(C)[C@]1(C)CC2	15.7 µM	33.8 µM	18 µM	38.5 µM	17.4 µM	34.8 µM	17.1 µM	33.8 µM	19.7 µM	34.4 µM	19 µM	34 µM	16.3 µM	32.6 µM	13.9 µM	34.6 µM	17.8 µM	33.1 µM	18.3 µM	35.3 µM
CCN1CCN(c2cc(C)c3cc(NC(=O)c4ccc(OC)c(OC)c4)ccc3n2)CC1	50.7 µM	> 100 µM	> 61 µM	> 100 µM	9.19 µM	> 75.1 µM	10.5 µM	31.3 µM	> 30.1 µM	> 73.3 µM	16.4 µM	41.1 µM	> 60.6 µM	> 100 µM	2.68 µM	29.4 µM	> 40.5 µM	> 61.8 µM	15.7 µM	> 100 µM
Cc1nc(N)sc1N=Nc1ccccc1Br	–	> 84.8 µM	–	> 69.7 µM	–	40.4 µM	–	> 67.4 µM	–	> 100 µM	–	43.2 µM	–	58.5 µM	–	> 100 µM	–	55.2 µM	–	> 90.5 µM
CCCC(=O)Nc1cn(COC)c(C(=O)N2C[C@@H]3C[C@]34C2=CC(=O)c2[nH]cc(C)c24)n1	–	12.8 µM and 14 µM	10.7 µM	50 µM and 30.9 µM	2.65 µM	30.5 µM and 8.66 µM	2.44 µM	13.9 µM and 5.08 µM	13.7 µM	28.2 µM and 29.4 µM	–	18.2 µM	3.99 µM	12.7 µM and > 100 µM	1.87 µM	41.5 µM and 6.75 µM	2.98 µM	27.3 µM and 9.29 µM	3.3 µM	50 µM and 9.52 µM
COc1cc(N=Nc2ccc(O)c3ncccc23)c2ncccc2c1	3.73 µM	> 100 µM	4.11 µM	> 100 µM	2.81 µM	> 100 µM	3.13 µM	> 100 µM	5.57 µM	> 100 µM	24.2 µM	93.5 µM	4.06 µM	> 100 µM	2.97 µM	> 100 µM	8.4 µM	> 100 µM	7.3 µM	> 100 µM
NC(N)=N/N=C/c1c(Cl)cccc1Cl	30 µM	> 100 µM	37.7 µM	> 100 µM	23.9 µM	89.4 µM	15.6 µM	32.5 µM	41.6 µM	> 100 µM	3.98 µM	36.9 µM	23.1 µM	> 100 µM	40.7 µM	> 100 µM	18.5 µM	36.1 µM	22.4 µM	79.8 µM
CCC[CH2][Sn]([CH2]CCC)([O]C(=O)c1ccc(OC)c(OC)c1OC)[O][Sn]([CH2]CCC)([CH2]CCC)[O]C(=O)c1ccc(OC)c(OC)c1OC	0.299 µM	0.979 µM	0.285 µM	0.635 µM	0.187 µM	0.842 µM	0.895 µM	2.55 µM	1.24 µM	2.59 µM	0.284 µM	1.25 µM	1.01 µM	2.17 µM	0.104 µM	0.846 µM	0.16 µM	0.48 µM	1.52 µM	2.85 µM
Cc1c(N(C)C)ccc2c(=O)c3cccc(CC(=O)O)c3oc12	–	> 100 µM	–	> 69 µM	–	> 100 µM	–	> 100 µM	–	> 100 µM	–	> 100 µM	–	> 100 µM	–	> 100 µM	–	> 100 µM	–	> 100 µM
NS(=O)(=O)c1ccc(N=Nc2c(O)c(C(=O)O)cc3ccccc23)cc1	–	> 100 µM	–	> 90.3 µM	–	> 100 µM	–	> 100 µM	–	> 100 µM	–	> 100 µM	–	> 100 µM	–	> 100 µM	–	> 100 µM	–	> 100 µM
CC1(C)OC2C(CO[Si](C)(C)C(C)(C)C)OC(n3c(I)c(C#C[Si](C)(C)C)c(=O)[nH]c3=O)C2O1 (configuration not stated)	12.5 µM	45.8 µM	> 100 µM	> 100 µM	11.4 µM	28.2 µM	16.8 µM	34.2 µM	> 100 µM	> 100 µM	32.2 µM	> 100 µM	13 µM	25.6 µM	2.4 µM	8.6 µM	3.78 µM	16.7 µM	18.7 µM	42.8 µM
CNCCOC(=O)/C=C1\CC[C@H]2[C@@H]([C@@H](O)C(=O)[C@@H]3[C@]2(C)CC[C@H](O)[C@]3(C)C(=O)OC)[C@H]1C	0.329 µM	1.11 µM	0.668 µM	1.99 µM	0.233 µM	0.59 µM	0.201 µM	0.429 µM	0.392 µM	1.36 µM	0.262 µM	2.53 µM	0.188 µM	0.371 µM	0.454 µM	2.65 µM	1.79 µM	4.57 µM	1.18 µM	2.68 µM
O=C(c1ccco1)c1c(C(F)(F)F)nc2ccc(Cl)cc2[n+]1[O-]	> 100 µM	> 100 µM	> 100 µM	> 100 µM	> 100 µM	> 100 µM	> 100 µM	> 100 µM	> 100 µM	> 100 µM	23.1 µM	68 µM	> 100 µM	> 100 µM	> 100 µM	> 100 µM	> 100 µM	> 100 µM	> 100 µM	> 100 µM
Cc1nc(Nc2cccnc2)sc1C(=O)/C=C/c1ccc(F)cc1	3.92 µM	> 100 µM	3.34 µM	15.9 µM	3.57 µM	31.9 µM	2.68 µM	6.9 µM	3.85 µM	> 100 µM	7.61 µM	42.7 µM	3.48 µM	14.8 µM	2.69 µM	15.2 µM	2.86 µM	9.03 µM	2.78 µM	23 µM
N#C/C(=C\c1ccc2ccccc2c1)C(=O)c1ccccc1	–	> 46.4 µM	–	> 100 µM	–	> 100 µM	–	> 100 µM	–	> 100 µM	–	> 100 µM	–	> 100 µM	–	97.8 µM	–	> 100 µM	–	> 100 µM
S=c1[nH]c(=S)c2cc3ccccc3nc2[nH]1	> 100 µM	> 100 µM	35.5 µM	> 100 µM	39.4 µM	> 100 µM	73.2 µM	> 100 µM	> 100 µM	> 100 µM	> 100 µM	> 100 µM	> 100 µM	> 100 µM	7.96 µM	> 100 µM	26.1 µM	84.7 µM	> 100 µM	> 100 µM
Nc1ncn([C@@H]2O[C@H](CO)[C@@H](O)[C@H]2O)c(=O)n1	0.766 µM	> 100 µM	4.1 µM	> 100 µM	2.14 µM	34.7 µM	0.232 µM	1.78 µM	1.14 µM	5.46 µM	1.41 µM	13.8 µM	0.775 µM	9.34 µM	0.669 µM	> 100 µM	0.612 µM	3.83 µM	2.57 µM	> 100 µM
COC(=O)c1c2c(c(C)[n+]([O-])c1C)C(=O)C=C(NCc1ccc(F)cc1)C2=O	0.37 µM	1.93 µM	1.38 µM	2.83 µM	1.38 µM	4.66 µM	0.493 µM	2 µM	2.53 µM	6.45 µM	1.26 µM	2.56 µM	1.15 µM	2.4 µM	1.25 µM	4.81 µM	1.11 µM	2.78 µM	1.39 µM	2.88 µM
